Tests used:
Assay type in all cases: physicochemical
[1] = Forced degradation studies (thermal, thermal-humidity, light, oxidation, acid, base); settings: for degradation of API: API alone
Excerpt: Each API and the final formulation (referred to as “AMX powder in sachet”) containing both APIs were also subjected to forced degradation studies. The study included stressing samples of PB (sodium phenylbutyrate) API, TURSO API, placebo, and AMX Powder in Sachet under thermal, thermal-humidity, light, oxidation, acid, or base conditions (Table 49).

[2] = Loss on Drying (LOD) testing; settings: excipients
Procedure: After storage in sealed bottles for about one week, slight agglomeration of blends was observed.
LOD testing was performed on recovered agglomerated blend (PD2016-015-33B) after ˜2 hours of drying at 50° C. to determine the degree of moisture uptake. Results were compared against a non-agglomerated blend that had been stored in a sealed bottle (PD2016-015-29A).

[3] = Bulk density, tapped density, Hausner ratio and Carr's index; settings: powder; calculated from bulk and tapped density
Procedure: Bulk density was calculated for each API and blend by gently pouring powder into a 25 mL graduated cylinder. Tapped density was calculated using a tapped volumeter to compact each powder using 100-tap increments until volume change was <5%. Hausner ratio and Carr's index were then calculated using bulk density and tapped density. Formulation C was selected based on flow characteristics. Carr's index, in addition to being a measure of compressibility, may also be used to determine the flow properties of a material. […] Acceptable flow property (as determined by the packaging equipment used) was a minimum of a Carr's index of under 25, with a Carr's index of below 20 being preferable.
Each API was blended and roller compacted with excipients separately to determine if the proximity of the dual APIs in the blend or granules was responsible for agglomeration. The resulting granules were then recombined and blended before filling test sachets. Bulk and tapped densities of each blend were measured prior to roller compaction. For this experiment, all silica were used at 1% W/W. Aerosil 200 was used as a negative control while Syloid 244FP and Syloid 63FP were used to remove moisture from the APIs to determine if APIs would agglomerate with reduced local levels of water. […]

[4] = Dynamic Vapor Sorption (DVS) testing
Excerpt: Samples of NaPB, TURSO, and modified formulation C1 blend were subjected to DVS testing to determine the magnitude of weight gain due to humidity.

[5] = Base 3 Days (1.0N NaOH, 50° C.)
[6] = Base 7 Days (1.0N NaOH, 50° C.)
[7] = Thermal-Humidity (85° C. + 1.0 mL water, 10 days)

C[C@H](CCC(=O)NCCS(=O)(=O)O)[C@H]1CC[C@H]2[C@@H]3[C@@H](O)C[C@@H]4C[C@H](O)CC[C@]4(C)[C@H]3CC[C@]12C [TUDCA API]
% RMBD, TUDCA ([1]; Acid 3 Days (1.0N HCl, 50° C.)): 99.8%
% TUDCA / % (TUDCA) Potency ([1]; Acid 3 Days (1.0N HCl, 50° C.)): 100.0%
% TUDCA remaining ([1]; Acid 3 Days (1.0N HCl, 50° C.)): 99.8%
% Total RS / % Total TUDCA Impurity ([1]; Acid 3 Days (1.0N HCl, 50° C.)): 0.23%
Sum / TUDCA Sum ([1]; Acid 3 Days (1.0N HCl, 50° C.)): 100.23
% RMBD, TUDCA ([1]; Acid 7 Days (1.0N HCl, 50° C.)): 97.0%
% TUDCA / % (TUDCA) Potency ([1]; Acid 7 Days (1.0N HCl, 50° C.)): 97.2%
% TUDCA remaining ([1]; Acid 7 Days (1.0N HCl, 50° C.)): 97.0%
% Total RS / % Total TUDCA Impurity ([1]; Acid 7 Days (1.0N HCl, 50° C.)): 0.20%
Sum / TUDCA Sum ([1]; Acid 7 Days (1.0N HCl, 50° C.)): 97.40
% Degradation Observed / Conclusion ([1]; Acid: 10 mL of 1.0N HCl per sample for 3 days at 50° C.): No significant
% RMBD, TUDCA [1, 5]: 94.9%
% TUDCA / % (TUDCA) Potency [1, 5]: 95.1%
% TUDCA remaining [1, 5]: 94.9%
% Total RS / % Total TUDCA Impurity [1, 5]: 0.22%
Sum / TUDCA Sum [1, 5]: 95.32
% RMBD, TUDCA [1, 6]: 82.6%
% TUDCA / % (TUDCA) Potency [1, 6]: 82.8%
% TUDCA remaining [1, 6]: 82.6%
% Total RS / % Total TUDCA Impurity [1, 6]: 0.18%
Sum / TUDCA Sum [1, 6]: 82.98
% TUDCA / % (TUDCA) Potency ([1]; Control): 100.2%
% Total RS / % Total TUDCA Impurity ([1]; Control): 0.22%
Sum / TUDCA Sum ([1]; Control): 100.42.
% RMBD, TUDCA ([1]; Light (1 × ICH condition)): 103.2%
% TUDCA / % (TUDCA) Potency ([1]; Light (1 × ICH condition)): 99.5%
% TUDCA remaining ([1]; Light (1 × ICH condition)): 103.2%
% Total RS / % Total TUDCA Impurity ([1]; Light (1 × ICH condition)): 0.24%
Sum / TUDCA Sum ([1]; Light (1 × ICH condition)): 99.74
% TUDCA / % (TUDCA) Potency ([1]; Light Control): 96.4%
% Total RS / % Total TUDCA Impurity ([1]; Light Control): 0.22%
Sum / TUDCA Sum ([1]; Light Control): 96.62
% Degradation Observed / Conclusion ([1]; Light: 1 × ICH condition (White light NLT 1.2 million lux hours and UV light NLT 200 W hours/m^2)): No significant
% RMBD, TUDCA ([1]; Oxidation (3% H2O2)): 98.8%
% TUDCA / % (TUDCA) Potency ([1]; Oxidation (3% H2O2)): 97.1%
% TUDCA remaining ([1]; Oxidation (3% H2O2)): 93.9%
% Total RS / % Total TUDCA Impurity ([1]; Oxidation (3% H2O2)): 1.36%
Sum / TUDCA Sum ([1]; Oxidation (3% H2O2)): 98.46
% Degradation Observed / Conclusion ([1]; Oxidation: 10 mL of 3% H2O2 per sample): ~3%
% RMBD, TUDCA ([1]; Thermal (85° C., 10 days)): 100.5%
% TUDCA / % (TUDCA) Potency ([1]; Thermal (85° C., 10 days)): 100.6%
% TUDCA remaining ([1]; Thermal (85° C., 10 days)): 100.4%
% Total RS / % Total TUDCA Impurity ([1]; Thermal (85° C., 10 days)): 0.28%
Sum / TUDCA Sum ([1]; Thermal (85° C., 10 days)): 100.88
% RMBD, TUDCA [1, 7]: 0.0%
% TUDCA remaining [1, 7]: 0%
Sum / TUDCA Sum [1, 7]: 0.00
% Degradation Observed / Conclusion ([1]; Thermal-Humidity: 85° C. + 1.0 mL water per sample for 10 days): Full degradation/
% Degradation Observed / Conclusion ([1]; Thermal: 85° C. for 10 days): No significant

OC[C@@H](O)[C@@H](O)[C@H](O)[C@@H](O)CO [sorbitol]
water uptake by loss-on-drying (LOD) testing [2]: neither exhibited massive water uptake

O=C(O)CCCc1ccccc1 [NaPB, sodium phenylbutyrate]
Carr's index [3]: 39.2
DVS change in mass ([4]; above 45% RH): massive fluctuations in mass
Fluctuations in mass ([4]; moisture uptake): up to 50%
degradation of API ([1]; any of the forced degradation conditions studied): did not degrade
% PB / % (PB) Potency ([1]; Acid 3 Days (1.0N HCl, 50° C.)): 99.1%
% PB remaining ([1]; Acid 3 Days (1.0N HCl, 50° C.)): 99.9%
% RMBD (Relative Mass Balance Deficit), PB ([1]; Acid 3 Days (1.0N HCl, 50° C.)): 99.0%
% Total RS / % Total PB Impurity ([1]; Acid 3 Days (1.0N HCl, 50° C.)): 1.18%
Mass Balance / PB Sum ([1]; Acid 3 Days (1.0N HCl, 50° C.)): 100.28
% PB / % (PB) Potency ([1]; Acid 7 Days (1.0N HCl, 50° C.)): 99.7%
% PB remaining ([1]; Acid 7 Days (1.0N HCl, 50° C.)): 100.5%
% RMBD (Relative Mass Balance Deficit), PB ([1]; Acid 7 Days (1.0N HCl, 50° C.)): 99.6%
% Total RS / % Total PB Impurity ([1]; Acid 7 Days (1.0N HCl, 50° C.)): 1.14%
Mass Balance / PB Sum ([1]; Acid 7 Days (1.0N HCl, 50° C.)): 100.84
% PB remaining [1, 5]: 99.7%
% RMBD (Relative Mass Balance Deficit), PB [1, 5]: 98.8%
% Total RS / % Total PB Impurity [1, 5]: 1.11%
Mass Balance / PB Sum [1, 5]: 100.01
% PB / % (PB) Potency [1, 6]: 99.8%
% PB remaining [1, 6]: 100.6%
% RMBD (Relative Mass Balance Deficit), PB [1, 6]: 99.6%
% Total RS / % Total PB Impurity [1, 6]: 1.10%
Mass Balance / PB Sum [1, 6]: 100.90
% PB / % (PB) Potency ([1]; Control): 99.2%
% Total RS / % Total PB Impurity ([1]; Control): 2.07%
Mass Balance / PB Sum ([1]; Control): 101.27
% PB / % (PB) Potency ([1]; Light (1 × ICH condition)): 98.3%
% PB remaining ([1]; Light (1 × ICH condition)): 99.3%
% RMBD (Relative Mass Balance Deficit), PB ([1]; Light (1 × ICH condition)): 99.1%
% Total RS / % Total PB Impurity ([1]; Light (1 × ICH condition)): 0.74%
Mass Balance / PB Sum ([1]; Light (1 × ICH condition)): 99.04
% PB / % (PB) Potency ([1]; Light Control): 99.0%
% Total RS / % Total PB Impurity ([1]; Light Control): 0.96%
Mass Balance / PB Sum ([1]; Light Control): 99.96
% PB remaining ([1]; Oxidation (3% H2O2)): 99.4%
% RMBD (Relative Mass Balance Deficit), PB ([1]; Oxidation (3% H2O2)): 100.5%
% Total RS / % Total PB Impurity ([1]; Oxidation (3% H2O2)): 3.13%
Mass Balance / PB Sum ([1]; Oxidation (3% H2O2)): 101.73
% PB / % (PB) Potency ([1]; Thermal (85° C., 10 days)): 98.9%
% PB remaining ([1]; Thermal (85° C., 10 days)): 99.7%
% RMBD (Relative Mass Balance Deficit), PB ([1]; Thermal (85° C., 10 days)): 101.5%
% Total RS / % Total PB Impurity ([1]; Thermal (85° C., 10 days)): 3.93%
Mass Balance / PB Sum ([1]; Thermal (85° C., 10 days)): 102.83
% PB / % (PB) Potency [1, 7]: 99.3%
% PB remaining [1, 7]: 100.1%
% RMBD (Relative Mass Balance Deficit), PB [1, 7]: 99.2%
% Total RS / % Total PB Impurity [1, 7]: 1.16%
Mass Balance / PB Sum [1, 7]: 100.48

C[C@H](CCC(=O)NCCS(=O)(=O)O)[C@H]1CC[C@H]2[C@@H]3[C@@H](O)C[C@@H]4C[C@H](O)CC[C@]4(C)[C@H]3CC[C@]12C [TURSO, tauroursodeoxycholic acid]
Carr's index [3]: 24.2
degradation of API ([1]; Thermal-Humidity condition): no TURSO peak was detected
degradation of API ([1]; acidic condition, by Day 7): degraded slightly
degradation of API ([1]; base condition, by Day 3): degraded slightly
degradation of API ([1]; base condition, by Day 7): ~17%
degradation of API ([1]; light condition): did not degrade
degradation of API ([1]; oxidation condition, by Day 3): degraded slightly
degradation of API ([1]; thermal condition): did not degrade
% Degradation Observed / Conclusion ([1]; Acid: 10 mL of 1.0N HCl per sample for 3 days at 50° C., listed as TURSO API): None
% Degradation Observed / Conclusion ([1]; Acid: 10 mL of 1.0N HCl per sample for 7 days at 50° C.): ~3%
% Degradation Observed / Conclusion ([1]; Base: 10 mL of 1.0N NaOH per sample for 3 days at 50° C.): ~5%
% Degradation Observed / Conclusion ([1]; Base: 10 mL of 1.0N NaOH per sample for 7 days at 50° C.): ~17%
% Degradation Observed / Conclusion ([1]; Light: 1 × ICH condition (White light NLT 1.2 million lux hours and UV light NLT 200 W hours/m^2), listed as TURSO API): None
% Degradation Observed / Conclusion ([1]; Oxidation: 10 mL of 3% H2O2 per sample, listed as TURSO API): 3%
% Degradation Observed / Conclusion ([1]; Thermal-Humidity: 85° C. + 1.0 mL water per sample for 10 days, listed as TURSO API): 100%
% Degradation Observed / Conclusion ([1]; Thermal: 85° C. for 10 days, listed as TURSO API): None

Source: US11583542B2, “Compositions of bile acids and phenylbutyrate compounds” (Amylyx Pharmaceuticals Inc., priority 2019, dated 2023)
